Experimental findings from patent US7553853B2, “Solid-state montelukast” (Synthon BV, priority 2003, dated 2009) are described below.

The nature of data set [1]: Hygroscopicity of montelukast acid (water content by Karl Fisher apparatus after exposure). It counts as physicochemical. Here is the method:
Montelukast acid (50 mg) from Example 2 was exposed to air overnight. The water content was then determined to be 0.07 wt % using a Karl Fisher apparatus.
Montelukast acid (50 mg) from Example 2 was stored for 2 days at 40° C., 75% relative humidity. The water content was then determined to be 0.27 wt % using a Karl Fisher apparatus.

Data set [2] can be described thus: Hygroscopicity as stated in the description. The class given is physicochemical. The following applies: solid state.

With `CC(C)(O)c1ccccc1CC[C@@H](SCC1(CC(=O)O)CC1)c1cccc(/C=C/c2ccc3ccc(Cl)cc3n2)c1` [Montelukast acid, [R-(E)]-1-[[[1-[3-[2-(7-chloro-2-quinolinyl)ethenyl]phenyl]-3-[2-(1-hydroxy-1-methylethyl)phenyl]propyl]thio]methyl]cyclopropane acetic acid], the water content in data set [1] (montelukast acid (50 mg) from Example 2, exposed to air overnight) is recorded as 0.07 wt %; in data set [1] (montelukast acid (50 mg) from Example 2, stored for 2 days at 40° C., 75% relative humidity), 0.27 wt %. Also, in data set [2], the “hygroscopicity in comparison to sodium montelukast” value was “reduced hygroscopicity”.
